{"source": "patent US9364488B2", "about": "“Myelin regeneration with androgens” (priority 2011, dated 2016)", "key": {"[1]": {"conditions": "mouse, in vivo, sc"}, "[2]": {"assay": "MENT level in plasma of castrated male mice with subcutaneous silastic implants (radioimmunoassay)", "format": "in vivo", "conditions": "mean of 8 samples, SD 0.87", "from_the_text": "In additional experiments, the level of MENT which was induced in the plasma of castrated male mice based on subcutaneous silastic implants, as determined by radioimmunoassay, and which included a myelin response, was as follows: […]"}, "[3]": {"system": "corpus callosum axons of cuprizone-intoxicated mice", "assay": "Remyelination of corpus callosum after demyelination induced by cuprizone intoxication", "format": "in vivo", "conditions": "for remyelination of corpus callosum (myelin basic protein staining, oligodendrocytes): 6 weeks of treatment with subcutaneous silastic implants after 12 weeks of cuprizone intoxication; for promyelinating effect in vivo after demyelination induced by cuprizone intoxication (summary statement): male and female animals; for remyelinating effect in testicular feminized mice: mice devoid of functional androgen receptors due to a gene mutation", "from_the_text": "In Figures b, d and f, are shown representative images of immunostaining of mouse corpus callosum with anti-MBP antibody."}, "[4]": {"system": "mouse spinal cord"}, "[5]": {"system": "oligodendrocyte progenitors", "assay": "Proliferation and maturation of oligodendrocyte progenitors"}, "[6]": {"system": "activated microglial cells in corpus callosum", "assay": "Microglial responses and astrogliosis after cuprizone intoxication", "conditions": "9 weeks of treatment after 12 weeks of cuprizone intoxication, castrated males"}, "[7]": {"system": "organotypic cultures of cerebellar slices"}, "[8]": {"molecular_target": "estrogen receptor beta (ERβ) (Homo sapiens, UniProt Q92731)", "sequence (Q92731 whole entry, species assumed)": "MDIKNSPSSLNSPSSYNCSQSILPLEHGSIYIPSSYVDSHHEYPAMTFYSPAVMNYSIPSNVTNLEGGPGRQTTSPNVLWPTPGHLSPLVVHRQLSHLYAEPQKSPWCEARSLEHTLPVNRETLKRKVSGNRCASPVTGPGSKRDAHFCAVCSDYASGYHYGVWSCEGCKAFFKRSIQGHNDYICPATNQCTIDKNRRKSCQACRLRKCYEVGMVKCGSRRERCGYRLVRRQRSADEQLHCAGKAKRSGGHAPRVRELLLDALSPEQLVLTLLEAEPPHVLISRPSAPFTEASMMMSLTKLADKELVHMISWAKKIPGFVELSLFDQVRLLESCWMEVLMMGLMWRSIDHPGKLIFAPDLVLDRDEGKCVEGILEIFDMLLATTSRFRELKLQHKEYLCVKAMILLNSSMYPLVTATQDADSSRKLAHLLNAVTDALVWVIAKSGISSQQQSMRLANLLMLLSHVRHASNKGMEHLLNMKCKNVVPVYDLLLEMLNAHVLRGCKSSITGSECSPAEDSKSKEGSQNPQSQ", "conditions": "reference 16; cited from earlier work"}}, "note": "Entries after “also recorded” stand apart in the source; their conditions may differ.", "data": [{"smiles": "C[C@]12CC[C@@H]3c4ccc(O)cc4CC[C@H]3[C@@H]1CC[C@@H]2O", "note": "[Estradiol, estradiol]", "values": [{"measurement": "Brain Level", "setting": "[1]; male", "result": "0.36 ± 0.04", "unit": "ng/g"}, {"measurement": "PLASMA LEVEL", "setting": "[1]; male", "result": "0.39 ± 0.07", "unit": "ng/mL"}, {"measurement": "levels produced in plasma and brain tissue by the implants", "setting": "[1]", "result": "high physiological levels"}]}, {"smiles": "C[C@@H]1CC2=CC(=O)CC[C@@H]2[C@H]2CC[C@]3(C)[C@@H](O)CC[C@H]3[C@@H]21", "note": "[MENT]", "values": [{"measurement": "mean MENT plasma level", "setting": "[2]", "result": 2.12, "unit": "ng/mL"}, {"measurement": "remyelination of corpus callosum (myelin basic protein staining, oligodendrocytes)", "setting": "[3]", "result": "promotion of remyelination"}, {"measurement": "promyelinating effect in vivo after demyelination induced by cuprizone intoxication (summary statement)", "setting": "[3]", "result": "also observed"}, {"measurement": "remyelination after lysolecithin-induced demyelination", "setting": "[4]", "result": "can be mimicked by MENT"}]}, {"smiles": "C[C@]12CC[C@H]3[C@@H](CCC4=CC(=O)CC[C@@]43C)[C@@H]1CC[C@@H]2O", "note": "[Testosterone, testosterone]", "values": [{"measurement": "remyelination of corpus callosum (myelin basic protein staining, oligodendrocytes)", "setting": "[3]", "result": "Strong remyelination"}, {"measurement": "remyelinating effect in aromatase knockout mice", "setting": "[3]; aromatase knockout mice, cuprizone model", "result": "loses its efficiency; also recorded: strongly reduced; also recorded: diminished"}, {"measurement": "promyelinating effect in vivo after demyelination induced by cuprizone intoxication (summary statement)", "setting": "[3]", "result": "very strong promyelinating effect"}, {"measurement": "remyelinating effect in testicular feminized mice", "setting": "[3]", "result": "not observed"}, {"measurement": "remyelinating effect in testicular feminized mice", "setting": "[3]; listed as testosterone", "result": "eliminated"}, {"measurement": "replenishment of corpus callosum fibers by oligodendrocytes", "setting": "[3]; silastic implants for 3 to 6 weeks after termination of 12 week cuprizone diet", "result": "replenished by oligodendrocytes forming new myelin sheaths"}, {"measurement": "proliferation and maturation of oligodendrocyte progenitors", "setting": "[5]", "result": "promotes the proliferation and maturation"}, {"measurement": "number of activated microglial cells", "setting": "[6]", "result": "return to normal levels; also recorded: significantly decreased"}, {"measurement": "promyelinating effect in vitro", "setting": "[7]", "result": "very strong promyelinating effect"}]}, {"smiles": "C[C@]12CCC(=O)C[C@@H]1CC[C@@H]1[C@@H]2CC[C@]2(C)[C@@H](O)CC[C@@H]12", "note": "[5α-dihydrotestosterone]", "values": [{"measurement": "remyelination of corpus callosum (myelin basic protein staining, oligodendrocytes)", "setting": "[3]", "result": "promotion of remyelination"}, {"measurement": "promyelinating effect in vivo after demyelination induced by cuprizone intoxication (summary statement)", "setting": "[3]", "result": "mimicked by 5α-dihydrotestosterone"}]}, {"smiles": "C[C@]12CC[C@H](O)C[C@@H]1CC[C@@H]1[C@@H]2CC[C@]2(C)[C@@H](O)CC[C@@H]12", "note": "[3βAdiol, 5α-androstane-3β,17β-diol]", "values": [{"measurement": "binding to estrogen receptor beta (ERβ)", "setting": "[8]", "result": "strongly binds"}]}]}
